The text below walks through data of patent US9545461B2, “Anti-microbial peptides and methods of use thereof” (priority 2011, dated 2017).

Square brackets hold non-standard residues; d marks the D form. Ends that are not written are not given here. pY = N[C@@H](Cc1ccc(OP(=O)(O)O)cc1)C(=O)O

The test system of data set [1] is Escherichia coli (ATCC 25922). The experiment in a line: Antimicrobial spectrum analysis. It counts as cell-based. The following applies: 200 μg/mL, 3 h.
Protocol: (§1) Antimicrobial activity against Pseudomonas aeruginosa clinical and laboratory isolates, as well as ATCC strains of Escherichia coli, Enterococcus faecalis, Serratia marcescens, Staphylococcus epidermidis, Staphylococcus aureus, Streptococcus pyogenes and Candida albicans (˜10^6 cfu/ml each) were evaluated by viable counts at 3 h. Protection against bacterial invasion (quantified by gentamicin survival) and cytotoxicity (trypan blue staining) were assessed using fresh TiHCE cells inoculated with P. aeruginosa clinical isolates 6294 (invasive, ˜10^6 cfu for 2 h) or 6206 (cytotoxic, ˜10^4 cfu for 3 h). Peptide binding and membrane permeabilization by hKRT6A 19mer was determined by N-terminal TAMRA-tagged peptides (110 μM) and an impermeant SYTOX blue nucleic acid stain (5 μM; Invitrogen).
(§2) For antimicrobial spectrum analysis, Escherichia coli (ATCC 25922), Enterococcus faecalis (ATCC 51188), Serratia marcescens (ATCC 43862), Staphylococcus epidermidis (ATCC 12228), Staphylococcus aureus (ATCC 29213), Streptococcus pyogenes (ATCC 19615) and Candida albicans (ATCC 90028) were used. […] Starting inoculum at a concentration of ˜10^8 cfu/ml was prepared fresh by suspending bacteria in KBM media (Lonza) until OD650 reading is ˜0.1. […]
Data set [2] relates to Candida albicans (ATCC 90028). In words: Antimicrobial spectrum analysis. It counts as cell-based. The following applies: 200 μg/mL, 3 h.
Protocol: as §1, §2
Data set [3] has as its system Enterococcus faecalis (ATCC 51188). The experiment in a line: Antimicrobial spectrum analysis. It counts as cell-based. To be noted: 200 μg/mL, 3 h.
Protocol: as §1, §2
For data set [4], the system named is Staphylococcus aureus (ATCC 29213). The experiment in a line: Antimicrobial spectrum analysis. It counts as cell-based. The following applies: 200 μg/mL, 3 h.
Protocol: (§3) Telomerase-immortalized human corneal epithelial cells (TiHCE) were cultured as described (Robertson D M et al., 2005 Invest Ophthalmol Vis Sci. 46:470-478). Crude lysates of media-treated and human tear fluid-treated cells were collected by freeze-thawing in KBM or saline (for assays) or 10 mM Tris-HCl (pH 8.5) (for mass spectrometry). Serial fractionation of lysates was performed using centrifugal filters with cutoffs at ˜100, ˜10 and ˜3 kDa (Millipore). […] Synthetic peptides of hKRT6A were obtained from Biomatik at a purity of >95%. Antimicrobial activity against Pseudomonas aeruginosa clinical and laboratory isolates, as well as ATCC strains of Escherichia coli, Enterococcus faecalis, Serratia marcescens, Staphylococcus epidermidis, Staphylococcus aureus, Streptococcus pyogenes and Candida albicans (˜10^6 cfu/ml each) were evaluated by viable counts at 3 h. […] Statistical analysis between two groups was performed using Student's t-Test.
as §2
The test system of data set [5] is Streptococcus pyogenes (ATCC 19615). It counts as cell-based. To be noted: 200 μg/mL, 3 h.
Protocol: as §3, §2
Data set [6] has as its system Staphylococcus epidermidis (ATCC 12228). The experiment in a line: Antimicrobial spectrum analysis. It counts as cell-based. To be noted: 200 μg/mL, 3 h.
Protocol: as §1, §2
Data set [7] deals with Serratia marcescens (ATCC 43862). In words: Antimicrobial spectrum analysis. To be noted: 200 μg/mL, 3 h. It counts as cell-based.
Protocol: (§4) Crude lysates of media-treated and human tear fluid-treated cells were collected by freeze-thawing in KBM or saline (for assays) or 10 mM Tris-HCl (pH 8.5) (for mass spectrometry). Serial fractionation of lysates was performed using centrifugal filters with cutoffs at ˜100, ˜10 and ˜3 kDa (Millipore). […] Synthetic peptides of hKRT6A were obtained from Biomatik at a purity of >95%. Antimicrobial activity against Pseudomonas aeruginosa clinical and laboratory isolates, as well as ATCC strains of Escherichia coli, Enterococcus faecalis, Serratia marcescens, Staphylococcus epidermidis, Staphylococcus aureus, Streptococcus pyogenes and Candida albicans (˜10^6 cfu/ml each) were evaluated by viable counts at 3 h. […] Statistical analysis between two groups was performed using Student's t-Test.
(§5) Pseudomonas aeruginosa corneal clinical isolates 6294 (invasive) and 6206 (cytotoxic), cystic fibrosis clinical isolate 2192, laboratory strains PAO1 (invasive), PA14 (cytotoxic), PAC1R and its series of isogenic LPS mutants (PAC1R algC-, 557, 605, 611) were used in this study. […] Starting inoculum at a concentration of ˜10^8 cfu/ml was prepared fresh by suspending bacteria in KBM media (Lonza) until OD650 reading is ˜0.1. […]
Data set [8] can be described thus: Bactericidal effect of phosphorylated vs non-phosphorylated 19-mer (FIG. 6). It counts as cell-based. An excerpt: Synthetic 19-mer KDAMP peptides were synthesized with or without tyrosine phosphorylation. The bactericidal effect of the peptides was compared.
For data set [9], the system named is cystic fibrosis isolate 2192. The following applies: Pseudomonas aeruginosa, 3 h, 200 μg/ml.
Protocol: as §4, §5
In another data set the test system is laboratory strain PAO1. In words: Antimicrobial activity assay (viable counts at 3 h). It counts as cell-based, Pseudomonas aeruginosa. The following applies: after 3 h, 200 μg/ml in 0.9% NaCl.
In data set [10] the test system is P. aeruginosa clinical isolate 6206 cytotoxicity to TiHCE cells. The experiment in a line: Cytotoxicity assay (trypan blue staining) in TiHCE cells. It counts as cell-based, Pseudomonas aeruginosa. To be noted: 3 h. On the procedure: To assess protective activity of against bacterial invasion, high-calcium treated TiHCE cells were incubated with P. aeruginosa clinical isolate 6294 (40 μl/well; 10^6 cfu/ml in crude lysates/lysate fractions versus KBM control for 3 h or 10^8 cfu/ml in peptide-containing saline versus no-peptide saline control for 2 h), followed by gentamicin treatment (200 μg/ml for 1 h). Viable intracellular bacteria was collected with 0.25% Triton-X in PBS (100 μl/well) and quantified by plating on TSA. To assay protection against bacterial cytotoxicity, P. aeruginosa clinical isolate 6206 was used instead (40 μl/well; 10^6 cfu/ml for 3 h). Dead cells were quantified by Trypan-blue (0.04%) staining.

Data set [11] concerns P. aeruginosa clinical isolate 6294. It counts as cell-based. To be noted: Pseudomonas aeruginosa, 3 h, 200 μg/ml.
Protocol: as §4, §5
The next data set concerns laboratory strain PA14. In words: Antimicrobial activity assay (viable counts at 3 h). It counts as cell-based, Pseudomonas aeruginosa. To be noted: 200 μg/ml (FIG. 2D).
In data set [12] the test system is human corneal epithelial cells (TiHCE). In words: Effect of peptide treatment alone on epithelial cells. It counts as cell-based.
Data set [13] relates to P. aeruginosa strain 6206. It counts as cell-based. The following applies: Pseudomonas aeruginosa, 3 h, 200 μg/ml.
Protocol: as §1, §2

Protocol for laboratory strain PA14: as §4, §5
Protocol for laboratory strain PAO1: as §4, §5

Turning to “AIGGGLSSVGGGSSTIK [17mer, AIGGGLSSVGGGSSTIK]”, the “activity (in words)” value in [1], in data set [2], in data set [3], in [4], in data set [6] and in data set [7] was “neither the 19- nor the 17mer peptide was active” in each case. The “susceptibility (in words)” value in data set [5] is “not susceptible”.
On to “RAIGGGLSSVGGGSSTIK(phospho-Y) (RAIGGGLSSVGGGSSTIK[pY]) [phosphorylated 19-mer]”, for which the “bactericidal activity compared with the non-phosphorylated 19-mer” value in data set [8] is “significantly increased bactericidal activity”.
Take “RAIGGGLSSVGGGSSTIKY [19mer, RAIGGGLSSVGGGSSTIKY]”: the reduced viability in data set [9] is 96.9%; in the data set with laboratory strain PAO1, 96.1%; in data set [11], 97.5%; in the data set on laboratory strain PA14, 98.7%; in data set [13], 99.7%. The “protection against bacterial induced cytotoxicity compared to controls” value in [10] is 85.1%. Moreover, the “impact of peptide treatment alone on epithelial cells (morphology, trypan blue exclusion)” value in data set [12] is “not visibly impacted”.
